From ChEMBL document CHEMBL1201862, “PubChem BioAssay data set” (2004)
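In this assay, cells in 96-well plates receive the compound at five concentrations for 48 hours. Endpoints are linearly interpolated between the surrounding concentrations. GI50 = concentration required for 50% inhibition of growth.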 Calls of active or inactive are those of the source. No stated cut-off is given here; in the data, active = GI50 up to about 1.1 µM and inactive = higher.

Tests used:
Assay in all cases: growth of human tumour cells (NCI), 48 h
SNB-19 = tested on: SNB-19
EKVX = tested on: EKVX
CCRF-CEM = tested on: CCRF-CEM
COLO 205 = tested on: COLO 205
SW-620 = tested on: SW-620
UO-31 = tested on: UO-31
OVCAR-3 = tested on: OVCAR-3
OVCAR-8 = tested on: OVCAR-8
Malme-3M = tested on: Malme-3M
LOX IMVI = tested on: LOX IMVI
ACHN = tested on: ACHN
SF-539 = tested on: SF-539
DU-145 = tested on: DU-145
NCI-H522 = tested on: NCI-H522
HCT-15 = tested on: HCT-15
K562 = tested on: K562
MDA-MB-435 = tested on: MDA-MB-435
SF-295 = tested on: SF-295
786-0 = tested on: 786-0
HOP-92 = tested on: HOP-92
OVCAR-4 = tested on: OVCAR-4
HCC 2998 = tested on: HCC 2998
CAKI-1 = tested on: CAKI-1
MCF7 = tested on: MCF7
HL-60 = tested on: HL-60
NCI-H226 = tested on: NCI-H226
SNB-75 = tested on: SNB-75
A498 = tested on: A498
PC-3 = tested on: PC-3
IGROV-1 = tested on: IGROV-1
SK-MEL-5 = tested on: SK-MEL-5
SR = tested on: SR
OVCAR-5 = tested on: OVCAR-5
SK-MEL-2 = tested on: SK-MEL-2
MOLT-4 = tested on: MOLT-4
UACC-62 = tested on: UACC-62
SK-OV-3 = tested on: SK-OV-3
HOP-62 = tested on: HOP-62
MDA-N = tested on: MDA-N
RPMI-8226 = tested on: RPMI-8226
UACC-257 = tested on: UACC-257
Hs-578T = tested on: Hs-578T
HCT-116 = tested on: HCT-116
SF-268 = tested on: SF-268
MDA-MB-231 = tested on: MDA-MB-231
SN12C = tested on: SN12C
U-251 = tested on: U-251
SK-MEL-28 = tested on: SK-MEL-28
M14 = tested on: M14
NCI/ADR-RES = tested on: NCI/ADR-RES
RXF 393 = tested on: RXF 393
TK-10 = tested on: TK-10
A549 = tested on: A549
BT-549 = tested on: BT-549
KM12 = tested on: KM12
NCI-H23 = tested on: NCI-H23
HT-29 = tested on: HT-29
NCI-H460 = tested on: NCI-H460

For `Nc1ccc(-c2nc3ccccc3s2)cc1Cl`, the GI50 (SNB-19) was > 70.8 µM (inactive), the GI50 (EKVX) was 25.2 µM (inactive) and the GI50 (CCRF-CEM) was 10.2 µM (inactive). For the same molecule, the GI50 (COLO 205) was > 56.2 µM (inactive), the GI50 (SW-620) was > 100 µM (inactive) and the GI50 (UO-31) was 23.3 µM (inactive). For the same molecule, the GI50 (OVCAR-3) was < 0.01 µM (active), the GI50 (OVCAR-8) was > 100 µM (inactive) and the GI50 (Malme-3M) was > 100 µM (inactive). The GI50 (LOX IMVI) was 46.8 µM (inactive), the GI50 (ACHN) was > 100 µM (inactive) and the GI50 (SF-539) was 77.6 µM (inactive). For the same molecule, the GI50 (DU-145) was > 100 µM (inactive), the GI50 (NCI-H522) was 98.6 µM (inactive) and the GI50 (HCT-15) was over 48.8 µM. The GI50 (K562) was 66.7 µM (inactive), the GI50 (MDA-MB-435) was > 100 µM (inactive) and the GI50 (SF-295) was 53.5 µM (inactive). For the same molecule, the GI50 (786-0) was 74 µM (inactive), the GI50 (HOP-92) was > 44.5 µM (inactive) and the GI50 (OVCAR-4) was > 100 µM (inactive). The GI50 (HCC 2998) was > 64.3 µM (inactive), the GI50 (CAKI-1) was > 93.3 µM (inactive) and the GI50 (MCF7) was < 0.01 µM (active). For the same molecule, the GI50 (HL-60) was > 92.3 µM (inactive), the GI50 (NCI-H226) was 0.571 µM (active) and the GI50 (SNB-75) was 16.6 µM (inactive). The GI50 (A498) was 0.223 µM (active), the GI50 (PC-3) was > 73.6 µM (inactive) and the GI50 (IGROV-1) was < 0.01 µM (active). The GI50 (SK-MEL-5) was > 87.3 µM (inactive), the GI50 (SR) was > 100 µM (inactive) and the GI50 (OVCAR-5) was 0.0259 µM (active). For the same molecule, the GI50 (SK-MEL-2) was > 100 µM (inactive), the GI50 (MOLT-4) was 16.3 µM (inactive) and the GI50 (UACC-62) was > 100 µM (inactive). The GI50 (SK-OV-3) was > 73.8 µM (inactive), the GI50 (HOP-62) was 18.8 µM (inactive) and the GI50 (MDA-N) was > 100 µM (inactive). The GI50 (RPMI-8226) was 36.1 µM (inactive), the GI50 (UACC-257) was > 100 µM (inactive) and the GI50 (Hs-578T) was 56 µM (inactive). The GI50 (HCT-116) was > 100 µM (inactive), the GI50 (SF-268) was 67 µM (inactive) and the GI50 (MDA-MB-231) was > 92.9 µM (inactive). For the same molecule, the GI50 (SN12C) was > 100 µM (inactive), the GI50 (U-251) was 58.2 µM (inactive) and the GI50 (SK-MEL-28) was > 100 µM (inactive). For the same molecule, the GI50 (M14) was > 100 µM (inactive), the GI50 (NCI/ADR-RES) was > 100 µM (inactive) and the GI50 (RXF 393) was > 39.8 µM (inactive). For the same molecule, the GI50 (TK-10) was < 0.01 µM (active), the GI50 (A549) was > 87.1 µM (inactive) and the GI50 (BT-549) was > 66.4 µM (inactive). The GI50 (KM12) was 40.3 µM (inactive), the GI50 (NCI-H23) was 69.3 µM (inactive) and the GI50 (HT-29) was > 100 µM (inactive).
With `C=C(Cl)C(=C)CCC(Cl)C(C)(C)Cl` (stereo not drawn) the GI50 (SNB-19) was > 100 µM (inactive), the GI50 (EKVX) was > 100 µM (inactive) and the GI50 (CCRF-CEM) was > 100 µM (inactive). For the same molecule, the GI50 (COLO 205) was > 100 µM (inactive), the GI50 (SW-620) was > 100 µM (inactive) and the GI50 (UO-31) was > 100 µM (inactive). The GI50 (OVCAR-3) was > 100 µM (inactive), the GI50 (Malme-3M) was > 100 µM (inactive) and the GI50 (LOX IMVI) was > 100 µM (inactive). For the same molecule, the GI50 (ACHN) was > 100 µM (inactive), the GI50 (SF-539) was > 100 µM (inactive) and the GI50 (DU-145) was > 100 µM (inactive). The GI50 (NCI-H522) was > 100 µM (inactive), the GI50 (K562) was > 100 µM (inactive) and the GI50 (MDA-MB-435) was > 100 µM (inactive). The GI50 (SF-295) was > 100 µM (inactive), the GI50 (786-0) was > 100 µM (inactive) and the GI50 (HOP-92) was > 100 µM (inactive). For the same molecule, the GI50 (OVCAR-4) was > 100 µM (inactive), the GI50 (HCC 2998) was > 100 µM (inactive) and the GI50 (CAKI-1) was > 100 µM (inactive). For the same molecule, the GI50 (MCF7) was > 100 µM (inactive), the GI50 (HL-60) was > 100 µM (inactive) and the GI50 (NCI-H226) was > 100 µM (inactive). For the same molecule, the GI50 (SNB-75) was > 100 µM (inactive), the GI50 (A498) was > 100 µM (inactive) and the GI50 (PC-3) was > 100 µM (inactive). For the same molecule, the GI50 (IGROV-1) was > 100 µM (inactive), the GI50 (SK-MEL-5) was > 100 µM (inactive) and the GI50 (SR) was > 100 µM (inactive). For the same molecule, the GI50 (OVCAR-5) was > 100 µM (inactive), the GI50 (SK-MEL-2) was > 100 µM (inactive) and the GI50 (MOLT-4) was > 100 µM (inactive). For the same molecule, the GI50 (UACC-62) was > 100 µM (inactive), the GI50 (SK-OV-3) was > 100 µM (inactive) and the GI50 (HOP-62) was > 100 µM (inactive). For the same molecule, the GI50 (MDA-N) was > 100 µM (inactive), the GI50 (RPMI-8226) was > 100 µM (inactive) and the GI50 (UACC-257) was > 100 µM (inactive). For the same molecule, the GI50 (Hs-578T) was > 100 µM (inactive), the GI50 (HCT-116) was > 100 µM (inactive) and the GI50 (SF-268) was > 100 µM (inactive). The GI50 (MDA-MB-231) was > 100 µM (inactive), the GI50 (SN12C) was > 100 µM (inactive) and the GI50 (U-251) was > 100 µM (inactive). For the same molecule, the GI50 (SK-MEL-28) was > 100 µM (inactive), the GI50 (M14) was > 100 µM (inactive) and the GI50 (NCI/ADR-RES) was > 100 µM (inactive). For the same molecule, the GI50 (NCI-H460) was > 100 µM (inactive), the GI50 (RXF 393) was > 100 µM (inactive) and the GI50 (TK-10) was > 100 µM (inactive). The GI50 (A549) was > 100 µM (inactive), the GI50 (BT-549) was > 100 µM (inactive) and the GI50 (KM12) was > 100 µM (inactive). For the same molecule, the GI50 (NCI-H23) was > 100 µM (inactive) and the GI50 (HT-29) was > 100 µM (inactive).
